Experimental data: US4985447A, “Certain benzoquinones, naphthoquinones and derivatives thereof which exhibit thromboxane A2 synthetase inhibition or receptor antagonism and the like” (Takeda Chemical Industries, Ltd., priority 1986, dated 1991)

How the values were obtained:
[1] = target: T1, Thromboxane A2 (TXA2) synthetase (Equus caballus, UniProt A0A9L0T8T9); assay: Inhibition of Thromboxane A2 (TXA2) synthetase (horse platelet microsome); assay type: biochemical; settings: read-out: Inhibition of Thromboxane A2 (TXA2) synthetase; for inhibition at 1 µM: 10^-6 M; for inhibition at 0.1 µM: 10^-7 M
T1 sequence (A0A9L0T8T9 2-534): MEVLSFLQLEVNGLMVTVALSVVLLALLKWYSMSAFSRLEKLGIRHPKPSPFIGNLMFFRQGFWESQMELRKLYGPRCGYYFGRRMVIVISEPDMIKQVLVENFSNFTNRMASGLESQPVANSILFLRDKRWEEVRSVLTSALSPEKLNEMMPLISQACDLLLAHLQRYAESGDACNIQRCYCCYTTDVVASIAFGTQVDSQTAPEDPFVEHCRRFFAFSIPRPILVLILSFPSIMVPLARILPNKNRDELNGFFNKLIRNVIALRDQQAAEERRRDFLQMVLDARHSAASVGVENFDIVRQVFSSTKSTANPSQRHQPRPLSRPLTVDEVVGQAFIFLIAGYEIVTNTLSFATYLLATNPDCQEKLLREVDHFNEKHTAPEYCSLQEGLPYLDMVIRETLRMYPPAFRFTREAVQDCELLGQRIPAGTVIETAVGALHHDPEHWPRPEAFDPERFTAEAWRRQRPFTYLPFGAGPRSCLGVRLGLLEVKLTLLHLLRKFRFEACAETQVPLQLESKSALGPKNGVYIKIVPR
Experimental: Inhibition of Thromboxane A2 (TXA2) synthetase
(§1) As a preparation of TXA2 synthetase, horse platelet microsome treated with indomethacin (indomethacin-treated horse platelet microsome: IPM) according to the method of Needleman et al. (Science 193 163, 1979) was used. To 60 μl of the solution of IPM in 50 mM Tris buffer(pH 7.5) (containing 140 μg on the protein basis), 60μof a solution containing a drug at a variable concentration was added and kept still at room temperature for 5 minutes. One hundred μl of this mixture was taken, to which 20 μl of a buffer containing 30 ng cf prostaglandin H2 (PGH2) with ice-cooling and kept still at 0° C. for 5 minutes to produce thromboxane A2 (TXA2). The reaction was stopped by addition of 500 μl of Tris buffer, and 50 μl of the resultant solution was subjected to radioimmunoassay of thromboxane B2 (TXB2), a stable metabolite of TXA2 [Shibouta et al. Biochem. Pharmacol. 28 3601, 1979]. The rate of inhibition (%) of TXA2 synthetase was determined from the difference in TXB2 productivity between the untreated group and the treated group.
as §1, with “60 μl of” for “60μof”, “of” for “cf”

[2] = Effect on occurrence of ventricular arrhythmia due to ischemia-reperfusion in rat; assay type: in vivo, rat (Sprague-Dawley); settings: 30 mg/kg, p.o., rats showing abnormal function/rats used, during 10 minutes of reperfusion; for Incidence of ventricular fibrillation: **p<0.01 (X^2 test); for Incidence of cardiac arrest / Incidence of ventricular tachycardia: *p<0.05 (X^2 test)
Experimental: Procedure: The experiment was carried out in Sprague-Dawley rat (male, 11-12 weeks old) according to the method of A. S. Manning (Circ. Res. 55, 545, 1984). A rat was given orally a drug or water at the dose of 5 ml/kg, and anesthetized 1 hour later with pentobarbital (50 mg/kg, intraperitoneal injection). The rat was thoractomized under artificial respiration and the coronary left anterior descending artery was ligated for 5 minutes, followed by reperfusion for 10 minutes. The incidences of ventricular tachycardia, ventricular fibrillation and cardiac arrest observed for the 10 minutes of reperfusion were determined.

[3] = Effect on cerebral ischemic seizure in spontaneously hypertensive rat; assay type: in vivo; settings: orally at 30 mg/kg
Experimental: Procedure: A spontaneously hypertensive rat (male, 20-23 weeks old) was given orally a compound or water at the dose of 5 ml/kg, and 1 hour later anesthetized with pentobarbital. Bilateral common carotid arteries were ligated, and the interval from immediately after the ligation to the occurrence of seizure (cramp, jumping, etc.) was measured.

[4] = target: T2, Thromboxane A2 (TXA2) receptor (Oryctolagus cuniculus, UniProt Q6WQI8); assay: Thromboxane A2 (TXA2) receptor antagonism (rabbit aorta strip contraction by U-46619); settings: for Inhibition of contraction of rabbit aorta strip due to U-46619: U-46619 10^-7 M, mean ± standard error, 6 cases
T2 construct: contraction by U-46619
T2 sequence (Q6WQI8 1-233): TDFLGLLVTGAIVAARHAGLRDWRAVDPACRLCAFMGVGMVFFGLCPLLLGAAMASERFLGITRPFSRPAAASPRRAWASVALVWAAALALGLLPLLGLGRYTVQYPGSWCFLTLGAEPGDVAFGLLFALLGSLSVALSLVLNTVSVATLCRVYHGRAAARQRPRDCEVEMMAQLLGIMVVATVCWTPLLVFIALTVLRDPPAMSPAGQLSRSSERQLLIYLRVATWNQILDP
Experimental: Thromboxane A2 (TXA2) receptor antagonism
Procedure: A spiral strip of the rabbit aorta (2-3 mm wide, about 3 cm long) was suspended in Krebs-Henseleit solution under the load of 2 g. The Krebs-Henseleit solution was saturated with a mixed gas of 95% O2 -5% CO2 and warmed at 37° C. Inhibition of the contraction of the vascular strip caused by a TXA2 mimic substance, U-46619* (10^-7 M), by pretreatment with Compound No.13 30 minutes before was studied.

SMILES | inhibition at 1 µM [1] | inhibition at 0.1 µM [1] | Incidence of ventricular fibrillation [2] | Incidence of ventricular fibrillation ([2]; listed as Compound No.1) | Incidence of cardiac arrest [2] | Incidence of ventricular tachycardia [2] | Incidence of cardiac arrest ([2]; listed as Compound No.1) | Incidence of ventricular tachycardia ([2]; listed as Compound No.1) | Interval to the occurrence of cerebral ischemic seizure (in words) [3] | protective effect against cerebral ischemia (in words) [3] | Inhibition of contraction of rabbit aorta strip due to U-46619 ([4]; 10^-5 M) | Inhibition of contraction of rabbit aorta strip due to U-46619 ([4]; 10^-5 M, listed as Compound No.13) | TXA2 receptor antagonism (in words) ([4]; 10^-6 M and 10^-5 M) | Inhibition of contraction of rabbit aorta strip due to U-46619 ([4]; 10^-6 M) | Inhibition of contraction of rabbit aorta strip due to U-46619 ([4]; 10^-6 M, listed as Compound No.13)
CC1=C(C)C(=O)C(C(C)c2cccnc2)=C(C)C1=O (centres unmarked) [Compound No. 1, 3,5,6-trimethyl-2-[1-(3-pyridyl)ethyl]-1,4-benzoquinone] | 76% | 37% | 3/8 | inhibited significantly | 1/8 | 6/8 | inhibited significantly | inhibited significantly | prolonged remarkably the interval to the occurrence of cerebral ischemic seizure | exerts protective effects against cerebral ischemia | – | – | – | – | –
CC1=C(C)C(=O)C(C(CCCCCC(=O)O)c2cccnc2)=C(C)C1=O (centres unmarked) [Compound No. 13, 7-(3-pyridyl)-7-(3,5,6-trimethyl-1,4-benzoquinon-2-yl)heptanoic acid] | 87% | 48% | – | – | – | – | – | – | – | – | 86 ± 8% | 86% | remarkable TXA2 receptor antagonism | 14 ± 4% | 14%
